The results in this text go back to ChEMBL document CHEMBL4387706, “Discovery of Novel Spiroindoline Derivatives as Selective Tankyrase Inhibitors” (J Med Chem, 2019).

SMILES strings stand for the structures. Activity calls are given as the source filed them. No cut-off for these calls is given here.

For series [1], the target named is Beta-1 adrenergic receptor (Homo sapiens) (UniProt P08588). Briefly: Displacement of [125I]cyanopindolol from full-length recombinant human beta1 receptor expressed in CHOK1 cells at 10 uM measured after 120 mins by scintillation counting method relative to control. In kind it is cell-based.
In series [2] the target is GABA-A receptor; anion channel (Rattus norvegicus) (UniProt O09028+P15431+P18506+P18508+P19969+P20236+P23574+P23576+P28471+P28473+P30191+P62813+P63079+P63138+Q91ZM7+Q9ES14). Briefly: Displacement of [3H]flunitrazepam from GABAA receptor in Wistar rat brain at 10 uM measured after 60 mins by scintillation counting method relative to control. It is filed as tissue-based. For orientation: In a radioligand displacement assay an active substance lowers the binding of a labelled ligand.

Series [3] relates to COLO 320DM. Briefly: Antitumor activity against human COLO320DM cells xenografted in mouse assessed as tumor growth inhibition at 300 mg/kg, ip administered twice daily for 11 days relative to control. Particulars: 264 h, read-out: TGI. In kind it is functional.
Series [4] deals with Neuronal acetylcholine receptor; alpha4/beta2 (Homo sapiens) (UniProt P17787+P43681). Briefly: Displacement of [3H]cytisine from full-length recombinant human alpha4/beta2 nACHR expressed in human SH-SY5Y cells at 10 uM measured after 120 mins by scintillation counting method relative to control. In kind it is cell-based.
The target of series [5] is T1, Tankyrase 1/2 (Homo sapiens) (UniProt Q9H2K2+O95271). Briefly: Inhibition of TNKS/TNKS2-mediated beta-catenin signaling in human COLO320DM cells assessed as down regulation of AXIN2 mRNA expression at 0.033 to 1 uM measured after 48 hrs by RT-PCR analysis. In kind it is cell-based.
The target of series [6] is hERG (KCNH2) (Homo sapiens, UniProt Q12809). As to the kind of experiment: Displacement of [3H]dofetilide from full-length recombinant human ERG receptor expressed in HEK293 cells at 10 uM measured after 60 mins by scintillation counting method relative to control. It is filed as cell-based. Particulars: HEK293 cells expressing recombinant human ERG, probe [3H]dofetilide.

Series [7] addresses cGMP-inhibited 3',5'-cyclic phosphodiesterase 3A (Homo sapiens) (UniProt Q14432). As to the kind of experiment: Inhibition of full-length recombinant human PDE3A at 10 uM using FAM-cAMP as substrate measured after 30 mins by spectrofluorimetric method relative to control.
The target in series [8] is Cannabinoid receptor 2 (Homo sapiens) (UniProt P34972). As to the kind of experiment: Displacement of [3H]WIN55212-2 from full-length recombinant human CB2 receptor expressed in human Chem1 cells at 10 uM measured after 90 mins by scintillation counting method relative to control. In kind it is cell-based.
Series [9] is filed under the species Homo sapiens. As to the kind of experiment: Effect on hippo signaling protein in human COLO320DM cells assessed as change in CYR61 expression at 0.033 to 1 uM measured after 48 hrs by RT-PCR analysis. In kind it is cell-based.
In series [10] the target is T1, Tankyrase 1/2 (Homo sapiens). Briefly: Inhibition of TNKS/TNKS2 in human COLO320DM cells assessed as upregulation of AXIN2 expression at 0.1 uM measured after 16 hrs by Western blot analysis relative to G007-LK. In kind it is cell-based. In general terms: Immunoblotting shows a protein as a band on a membrane.
The subject of series [11] is COLO 320DM. Briefly: Antitumor activity against human COLO320DM cells xenografted in mouse assessed as tumor growth inhibition at 150 mg/kg, ip administered twice daily for 11 days relative to control. Particulars: 264 h, read-out: TGI. In kind it is functional.
Series [12] deals with T2, Poly [ADP-ribose] polymerase tankyrase-1 (Homo sapiens, UniProt O95271).
T2 sequence (O95271 whole entry): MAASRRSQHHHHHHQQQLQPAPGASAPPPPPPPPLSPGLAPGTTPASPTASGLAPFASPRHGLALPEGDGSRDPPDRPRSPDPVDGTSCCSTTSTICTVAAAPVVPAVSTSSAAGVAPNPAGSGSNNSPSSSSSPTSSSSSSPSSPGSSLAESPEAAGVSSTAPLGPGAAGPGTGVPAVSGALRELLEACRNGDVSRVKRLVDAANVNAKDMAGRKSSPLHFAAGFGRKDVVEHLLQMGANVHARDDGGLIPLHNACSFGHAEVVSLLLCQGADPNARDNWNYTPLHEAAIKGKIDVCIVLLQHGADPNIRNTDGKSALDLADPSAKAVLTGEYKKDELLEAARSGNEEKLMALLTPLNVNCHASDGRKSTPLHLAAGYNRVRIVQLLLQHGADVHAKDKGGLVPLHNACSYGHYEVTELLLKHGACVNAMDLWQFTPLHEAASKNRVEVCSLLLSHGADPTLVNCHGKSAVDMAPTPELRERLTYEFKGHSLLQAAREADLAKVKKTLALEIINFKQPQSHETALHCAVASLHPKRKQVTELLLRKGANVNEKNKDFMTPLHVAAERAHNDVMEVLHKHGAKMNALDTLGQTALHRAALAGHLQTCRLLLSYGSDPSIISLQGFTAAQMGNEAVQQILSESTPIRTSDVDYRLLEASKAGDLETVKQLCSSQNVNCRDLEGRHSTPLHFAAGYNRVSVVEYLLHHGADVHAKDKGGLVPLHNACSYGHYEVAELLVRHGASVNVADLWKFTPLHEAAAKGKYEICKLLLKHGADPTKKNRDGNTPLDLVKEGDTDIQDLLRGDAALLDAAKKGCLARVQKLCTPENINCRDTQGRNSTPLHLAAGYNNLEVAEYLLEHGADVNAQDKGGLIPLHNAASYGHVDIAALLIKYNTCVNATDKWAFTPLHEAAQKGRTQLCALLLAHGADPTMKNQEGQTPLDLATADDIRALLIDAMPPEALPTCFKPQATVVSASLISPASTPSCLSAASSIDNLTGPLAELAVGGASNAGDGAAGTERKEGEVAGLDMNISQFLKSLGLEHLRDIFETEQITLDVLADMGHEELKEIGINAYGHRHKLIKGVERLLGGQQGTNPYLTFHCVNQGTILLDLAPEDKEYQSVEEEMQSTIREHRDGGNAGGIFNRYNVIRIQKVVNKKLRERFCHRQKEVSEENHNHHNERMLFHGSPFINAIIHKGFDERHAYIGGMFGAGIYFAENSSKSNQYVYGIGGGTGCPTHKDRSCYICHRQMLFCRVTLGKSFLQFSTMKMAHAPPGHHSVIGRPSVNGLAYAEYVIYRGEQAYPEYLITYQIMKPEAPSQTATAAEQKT
Description: Inhibition of recombinant human N-terminal TEV cleavage site-fused/FLAG-poly his-tagged TNKS SAM-PARP domain (1024 to 1327 residues) expressed in Escherichia coli assessed as reduction in auto-PARylation preincubated for 10 mins followed by biotinylated-NAD+ addition and measured after 45 mins by ELISA

T1 sequence (Q9H2K2 whole entry, looked up, one chain of several): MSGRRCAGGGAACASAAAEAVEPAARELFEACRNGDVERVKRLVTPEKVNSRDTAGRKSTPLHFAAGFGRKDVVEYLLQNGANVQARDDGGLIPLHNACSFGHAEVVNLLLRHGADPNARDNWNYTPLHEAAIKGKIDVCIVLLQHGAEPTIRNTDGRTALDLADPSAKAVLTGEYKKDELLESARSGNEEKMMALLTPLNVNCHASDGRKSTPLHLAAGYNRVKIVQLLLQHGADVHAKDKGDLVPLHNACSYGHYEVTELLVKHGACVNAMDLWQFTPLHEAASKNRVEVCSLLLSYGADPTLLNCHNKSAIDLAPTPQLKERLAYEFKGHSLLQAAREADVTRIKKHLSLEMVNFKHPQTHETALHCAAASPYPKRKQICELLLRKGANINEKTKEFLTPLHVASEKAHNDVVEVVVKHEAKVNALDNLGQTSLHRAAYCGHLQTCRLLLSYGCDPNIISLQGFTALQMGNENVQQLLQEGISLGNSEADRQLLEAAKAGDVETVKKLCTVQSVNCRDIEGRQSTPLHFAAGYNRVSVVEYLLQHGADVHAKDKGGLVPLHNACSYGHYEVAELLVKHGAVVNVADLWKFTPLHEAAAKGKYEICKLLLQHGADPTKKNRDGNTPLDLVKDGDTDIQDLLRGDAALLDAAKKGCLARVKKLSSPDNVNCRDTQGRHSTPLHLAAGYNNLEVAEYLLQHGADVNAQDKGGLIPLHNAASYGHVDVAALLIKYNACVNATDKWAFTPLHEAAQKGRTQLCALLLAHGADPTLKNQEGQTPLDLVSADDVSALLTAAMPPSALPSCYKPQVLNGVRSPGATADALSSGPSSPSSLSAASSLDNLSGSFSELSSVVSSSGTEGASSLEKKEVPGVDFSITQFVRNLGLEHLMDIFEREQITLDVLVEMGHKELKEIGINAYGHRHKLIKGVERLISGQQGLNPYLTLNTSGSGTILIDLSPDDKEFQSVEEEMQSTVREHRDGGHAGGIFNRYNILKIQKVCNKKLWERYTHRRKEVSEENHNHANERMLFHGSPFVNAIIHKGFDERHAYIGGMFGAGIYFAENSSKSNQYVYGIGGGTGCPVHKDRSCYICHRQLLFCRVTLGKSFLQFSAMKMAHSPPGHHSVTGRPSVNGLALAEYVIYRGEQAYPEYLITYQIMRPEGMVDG
Sequence of hERG (KCNH2) (Q12809 whole entry): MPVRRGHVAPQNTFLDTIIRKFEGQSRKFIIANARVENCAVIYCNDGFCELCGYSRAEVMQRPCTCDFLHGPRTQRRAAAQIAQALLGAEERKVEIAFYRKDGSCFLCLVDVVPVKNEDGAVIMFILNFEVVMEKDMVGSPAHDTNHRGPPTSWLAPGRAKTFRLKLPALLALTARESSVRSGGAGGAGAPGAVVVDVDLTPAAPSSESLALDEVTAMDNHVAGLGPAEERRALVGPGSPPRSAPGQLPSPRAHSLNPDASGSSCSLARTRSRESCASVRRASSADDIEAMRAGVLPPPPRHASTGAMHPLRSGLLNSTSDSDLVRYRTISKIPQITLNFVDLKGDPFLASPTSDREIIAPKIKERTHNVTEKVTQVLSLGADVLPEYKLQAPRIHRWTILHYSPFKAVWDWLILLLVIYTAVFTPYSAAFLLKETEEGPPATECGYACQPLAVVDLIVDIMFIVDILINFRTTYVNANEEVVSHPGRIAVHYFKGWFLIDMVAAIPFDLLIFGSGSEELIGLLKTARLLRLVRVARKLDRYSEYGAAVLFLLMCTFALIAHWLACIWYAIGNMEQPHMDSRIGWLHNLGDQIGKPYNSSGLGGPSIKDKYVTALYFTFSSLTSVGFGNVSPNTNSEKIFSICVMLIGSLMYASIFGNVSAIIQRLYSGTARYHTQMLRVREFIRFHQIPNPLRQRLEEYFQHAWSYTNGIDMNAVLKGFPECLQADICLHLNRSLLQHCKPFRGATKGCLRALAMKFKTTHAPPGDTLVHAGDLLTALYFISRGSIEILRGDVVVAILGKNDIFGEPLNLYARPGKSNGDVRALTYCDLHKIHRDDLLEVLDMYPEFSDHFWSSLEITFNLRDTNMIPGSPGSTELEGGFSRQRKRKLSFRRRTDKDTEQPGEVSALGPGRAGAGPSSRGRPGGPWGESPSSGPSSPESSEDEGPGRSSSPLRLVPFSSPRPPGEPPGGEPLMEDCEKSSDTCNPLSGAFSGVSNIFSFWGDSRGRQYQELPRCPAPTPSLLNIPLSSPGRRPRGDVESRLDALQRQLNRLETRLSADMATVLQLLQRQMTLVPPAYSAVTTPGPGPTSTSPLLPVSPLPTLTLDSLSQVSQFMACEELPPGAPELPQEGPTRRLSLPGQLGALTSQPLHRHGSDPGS
Sequence of Beta-1 adrenergic receptor (Homo sapiens) (P08588 whole entry, looked up): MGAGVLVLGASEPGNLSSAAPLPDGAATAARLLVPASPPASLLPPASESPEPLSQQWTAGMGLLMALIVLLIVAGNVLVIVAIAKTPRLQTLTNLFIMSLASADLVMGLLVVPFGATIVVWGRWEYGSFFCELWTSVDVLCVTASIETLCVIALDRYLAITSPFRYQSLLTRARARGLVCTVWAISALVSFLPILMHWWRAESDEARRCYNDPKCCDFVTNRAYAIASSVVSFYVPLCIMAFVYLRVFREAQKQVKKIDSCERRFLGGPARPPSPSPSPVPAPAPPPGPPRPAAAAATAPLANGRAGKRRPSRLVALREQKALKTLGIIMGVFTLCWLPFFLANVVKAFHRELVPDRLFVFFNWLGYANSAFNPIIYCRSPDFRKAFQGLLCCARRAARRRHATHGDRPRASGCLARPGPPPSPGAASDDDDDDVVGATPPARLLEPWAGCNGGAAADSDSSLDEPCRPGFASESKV
Sequence of Cannabinoid receptor 2 (Homo sapiens) (P34972 whole entry): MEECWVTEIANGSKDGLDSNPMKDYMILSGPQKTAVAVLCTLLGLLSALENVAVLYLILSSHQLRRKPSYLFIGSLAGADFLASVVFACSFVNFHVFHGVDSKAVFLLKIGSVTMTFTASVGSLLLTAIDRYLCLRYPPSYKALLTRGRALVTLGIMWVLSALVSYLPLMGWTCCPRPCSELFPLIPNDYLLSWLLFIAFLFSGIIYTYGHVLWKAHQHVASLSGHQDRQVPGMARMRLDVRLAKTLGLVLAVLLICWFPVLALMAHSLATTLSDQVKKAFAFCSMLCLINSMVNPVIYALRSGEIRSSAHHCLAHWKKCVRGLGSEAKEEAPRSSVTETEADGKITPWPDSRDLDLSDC
Sequence of cGMP-inhibited 3',5'-cyclic phosphodiesterase 3A (Homo sapiens) (Q14432 whole entry): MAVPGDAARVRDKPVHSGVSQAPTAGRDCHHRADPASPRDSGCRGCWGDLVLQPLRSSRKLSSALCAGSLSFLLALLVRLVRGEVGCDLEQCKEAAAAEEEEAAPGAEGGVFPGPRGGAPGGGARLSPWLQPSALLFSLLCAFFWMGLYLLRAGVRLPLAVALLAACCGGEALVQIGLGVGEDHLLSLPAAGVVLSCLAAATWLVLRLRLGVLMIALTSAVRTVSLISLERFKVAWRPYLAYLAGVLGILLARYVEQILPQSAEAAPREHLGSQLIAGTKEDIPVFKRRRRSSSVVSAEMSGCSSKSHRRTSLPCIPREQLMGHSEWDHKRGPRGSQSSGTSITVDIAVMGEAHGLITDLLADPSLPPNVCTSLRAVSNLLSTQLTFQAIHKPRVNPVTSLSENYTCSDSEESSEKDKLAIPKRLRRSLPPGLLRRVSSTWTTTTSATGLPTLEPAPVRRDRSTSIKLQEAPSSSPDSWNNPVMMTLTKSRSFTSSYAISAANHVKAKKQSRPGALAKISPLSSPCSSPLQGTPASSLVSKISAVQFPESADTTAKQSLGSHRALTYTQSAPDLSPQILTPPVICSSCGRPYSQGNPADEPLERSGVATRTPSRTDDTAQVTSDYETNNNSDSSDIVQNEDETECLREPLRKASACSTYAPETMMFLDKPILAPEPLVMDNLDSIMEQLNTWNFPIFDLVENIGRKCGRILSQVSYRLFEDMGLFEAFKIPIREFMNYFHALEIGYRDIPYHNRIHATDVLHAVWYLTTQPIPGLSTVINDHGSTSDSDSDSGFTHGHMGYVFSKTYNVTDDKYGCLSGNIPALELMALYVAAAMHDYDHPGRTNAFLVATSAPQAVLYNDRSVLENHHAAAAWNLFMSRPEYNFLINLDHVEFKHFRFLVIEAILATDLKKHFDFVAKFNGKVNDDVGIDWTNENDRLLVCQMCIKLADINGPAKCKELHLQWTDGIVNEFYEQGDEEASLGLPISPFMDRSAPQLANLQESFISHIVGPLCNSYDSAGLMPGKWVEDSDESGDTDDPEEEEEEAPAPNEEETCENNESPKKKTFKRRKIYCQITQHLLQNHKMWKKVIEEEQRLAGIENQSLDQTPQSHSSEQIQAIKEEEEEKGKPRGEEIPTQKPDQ

As for `O=c1[nH]c(N2CCC3(CC2)CN(CCO)c2cc(F)cc(F)c23)nc2c1CCCC2`, the inhibition in [1], in [2], in series [4], in [7] and in series [8] was over 20% throughout. Also, the inhibition in vivo at 300 mg/kg in series [3] worked out at 51.9%. Besides, in [5], the inhibition result is “Active”. Moreover, the inhibition at 1 h, 10 µM in series [6] was over 20%. In addition, the outcome in series [9] was inactive. Moreover, the fold change (FC) in series [10] is 4.42. The inhibition in vivo at 150 mg/kg in series [11] worked out at 47.2%.
Take `COc1ccccc1N1CCN(c2nc3c(c(=O)[nH]2)CCCC3)CC1`: in [12], it took 20.5 nM to reach half-maximal inhibition (IC50).

As a reminder, the inhibition is the percentage by which the read-out fell short of the control. A word on the IC50: it is the concentration at which inhibition is half-maximal. Read a low IC50 as greater potency in that assay.
